Laboratory results as given in US10670605B2, “Cysteine reactive probes and uses thereof” (The Scripps Research Institute, priority 2015, dated 2020).

Tests used:
Experiment in all cases: Competitive isoTOP-ABPP, cell lysates
Assay type in all cases: binding
[1] = biological target: T1, CYR61 C134 (O00622) (Homo sapiens, UniProt O00622); settings: for isoTOP-ABPP ratio (reactivity profile), O00622_C134: 500 μm in-vitro ramos_231
T1 sequence (O00622 25-381): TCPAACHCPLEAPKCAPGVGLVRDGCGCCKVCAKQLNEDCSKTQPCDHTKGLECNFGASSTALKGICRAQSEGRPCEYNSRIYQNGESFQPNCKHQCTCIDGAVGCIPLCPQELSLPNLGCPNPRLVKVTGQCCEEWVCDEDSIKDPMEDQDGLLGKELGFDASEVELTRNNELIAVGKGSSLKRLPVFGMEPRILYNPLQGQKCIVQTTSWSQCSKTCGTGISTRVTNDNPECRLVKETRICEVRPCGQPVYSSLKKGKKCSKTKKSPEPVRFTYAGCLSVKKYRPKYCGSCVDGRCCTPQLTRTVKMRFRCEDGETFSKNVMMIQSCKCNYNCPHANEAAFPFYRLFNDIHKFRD

[2] = biological target: USP34 C1090 (Q70CQ2) (Homo sapiens, UniProt Q70CQ2); settings: for isoTOP-ABPP ratio (reactivity profile), Q70CQ2_C1090: 500 μm in-vitro ramos
USP34 C1090 (Q70CQ2), sequence (Q70CQ2 whole entry): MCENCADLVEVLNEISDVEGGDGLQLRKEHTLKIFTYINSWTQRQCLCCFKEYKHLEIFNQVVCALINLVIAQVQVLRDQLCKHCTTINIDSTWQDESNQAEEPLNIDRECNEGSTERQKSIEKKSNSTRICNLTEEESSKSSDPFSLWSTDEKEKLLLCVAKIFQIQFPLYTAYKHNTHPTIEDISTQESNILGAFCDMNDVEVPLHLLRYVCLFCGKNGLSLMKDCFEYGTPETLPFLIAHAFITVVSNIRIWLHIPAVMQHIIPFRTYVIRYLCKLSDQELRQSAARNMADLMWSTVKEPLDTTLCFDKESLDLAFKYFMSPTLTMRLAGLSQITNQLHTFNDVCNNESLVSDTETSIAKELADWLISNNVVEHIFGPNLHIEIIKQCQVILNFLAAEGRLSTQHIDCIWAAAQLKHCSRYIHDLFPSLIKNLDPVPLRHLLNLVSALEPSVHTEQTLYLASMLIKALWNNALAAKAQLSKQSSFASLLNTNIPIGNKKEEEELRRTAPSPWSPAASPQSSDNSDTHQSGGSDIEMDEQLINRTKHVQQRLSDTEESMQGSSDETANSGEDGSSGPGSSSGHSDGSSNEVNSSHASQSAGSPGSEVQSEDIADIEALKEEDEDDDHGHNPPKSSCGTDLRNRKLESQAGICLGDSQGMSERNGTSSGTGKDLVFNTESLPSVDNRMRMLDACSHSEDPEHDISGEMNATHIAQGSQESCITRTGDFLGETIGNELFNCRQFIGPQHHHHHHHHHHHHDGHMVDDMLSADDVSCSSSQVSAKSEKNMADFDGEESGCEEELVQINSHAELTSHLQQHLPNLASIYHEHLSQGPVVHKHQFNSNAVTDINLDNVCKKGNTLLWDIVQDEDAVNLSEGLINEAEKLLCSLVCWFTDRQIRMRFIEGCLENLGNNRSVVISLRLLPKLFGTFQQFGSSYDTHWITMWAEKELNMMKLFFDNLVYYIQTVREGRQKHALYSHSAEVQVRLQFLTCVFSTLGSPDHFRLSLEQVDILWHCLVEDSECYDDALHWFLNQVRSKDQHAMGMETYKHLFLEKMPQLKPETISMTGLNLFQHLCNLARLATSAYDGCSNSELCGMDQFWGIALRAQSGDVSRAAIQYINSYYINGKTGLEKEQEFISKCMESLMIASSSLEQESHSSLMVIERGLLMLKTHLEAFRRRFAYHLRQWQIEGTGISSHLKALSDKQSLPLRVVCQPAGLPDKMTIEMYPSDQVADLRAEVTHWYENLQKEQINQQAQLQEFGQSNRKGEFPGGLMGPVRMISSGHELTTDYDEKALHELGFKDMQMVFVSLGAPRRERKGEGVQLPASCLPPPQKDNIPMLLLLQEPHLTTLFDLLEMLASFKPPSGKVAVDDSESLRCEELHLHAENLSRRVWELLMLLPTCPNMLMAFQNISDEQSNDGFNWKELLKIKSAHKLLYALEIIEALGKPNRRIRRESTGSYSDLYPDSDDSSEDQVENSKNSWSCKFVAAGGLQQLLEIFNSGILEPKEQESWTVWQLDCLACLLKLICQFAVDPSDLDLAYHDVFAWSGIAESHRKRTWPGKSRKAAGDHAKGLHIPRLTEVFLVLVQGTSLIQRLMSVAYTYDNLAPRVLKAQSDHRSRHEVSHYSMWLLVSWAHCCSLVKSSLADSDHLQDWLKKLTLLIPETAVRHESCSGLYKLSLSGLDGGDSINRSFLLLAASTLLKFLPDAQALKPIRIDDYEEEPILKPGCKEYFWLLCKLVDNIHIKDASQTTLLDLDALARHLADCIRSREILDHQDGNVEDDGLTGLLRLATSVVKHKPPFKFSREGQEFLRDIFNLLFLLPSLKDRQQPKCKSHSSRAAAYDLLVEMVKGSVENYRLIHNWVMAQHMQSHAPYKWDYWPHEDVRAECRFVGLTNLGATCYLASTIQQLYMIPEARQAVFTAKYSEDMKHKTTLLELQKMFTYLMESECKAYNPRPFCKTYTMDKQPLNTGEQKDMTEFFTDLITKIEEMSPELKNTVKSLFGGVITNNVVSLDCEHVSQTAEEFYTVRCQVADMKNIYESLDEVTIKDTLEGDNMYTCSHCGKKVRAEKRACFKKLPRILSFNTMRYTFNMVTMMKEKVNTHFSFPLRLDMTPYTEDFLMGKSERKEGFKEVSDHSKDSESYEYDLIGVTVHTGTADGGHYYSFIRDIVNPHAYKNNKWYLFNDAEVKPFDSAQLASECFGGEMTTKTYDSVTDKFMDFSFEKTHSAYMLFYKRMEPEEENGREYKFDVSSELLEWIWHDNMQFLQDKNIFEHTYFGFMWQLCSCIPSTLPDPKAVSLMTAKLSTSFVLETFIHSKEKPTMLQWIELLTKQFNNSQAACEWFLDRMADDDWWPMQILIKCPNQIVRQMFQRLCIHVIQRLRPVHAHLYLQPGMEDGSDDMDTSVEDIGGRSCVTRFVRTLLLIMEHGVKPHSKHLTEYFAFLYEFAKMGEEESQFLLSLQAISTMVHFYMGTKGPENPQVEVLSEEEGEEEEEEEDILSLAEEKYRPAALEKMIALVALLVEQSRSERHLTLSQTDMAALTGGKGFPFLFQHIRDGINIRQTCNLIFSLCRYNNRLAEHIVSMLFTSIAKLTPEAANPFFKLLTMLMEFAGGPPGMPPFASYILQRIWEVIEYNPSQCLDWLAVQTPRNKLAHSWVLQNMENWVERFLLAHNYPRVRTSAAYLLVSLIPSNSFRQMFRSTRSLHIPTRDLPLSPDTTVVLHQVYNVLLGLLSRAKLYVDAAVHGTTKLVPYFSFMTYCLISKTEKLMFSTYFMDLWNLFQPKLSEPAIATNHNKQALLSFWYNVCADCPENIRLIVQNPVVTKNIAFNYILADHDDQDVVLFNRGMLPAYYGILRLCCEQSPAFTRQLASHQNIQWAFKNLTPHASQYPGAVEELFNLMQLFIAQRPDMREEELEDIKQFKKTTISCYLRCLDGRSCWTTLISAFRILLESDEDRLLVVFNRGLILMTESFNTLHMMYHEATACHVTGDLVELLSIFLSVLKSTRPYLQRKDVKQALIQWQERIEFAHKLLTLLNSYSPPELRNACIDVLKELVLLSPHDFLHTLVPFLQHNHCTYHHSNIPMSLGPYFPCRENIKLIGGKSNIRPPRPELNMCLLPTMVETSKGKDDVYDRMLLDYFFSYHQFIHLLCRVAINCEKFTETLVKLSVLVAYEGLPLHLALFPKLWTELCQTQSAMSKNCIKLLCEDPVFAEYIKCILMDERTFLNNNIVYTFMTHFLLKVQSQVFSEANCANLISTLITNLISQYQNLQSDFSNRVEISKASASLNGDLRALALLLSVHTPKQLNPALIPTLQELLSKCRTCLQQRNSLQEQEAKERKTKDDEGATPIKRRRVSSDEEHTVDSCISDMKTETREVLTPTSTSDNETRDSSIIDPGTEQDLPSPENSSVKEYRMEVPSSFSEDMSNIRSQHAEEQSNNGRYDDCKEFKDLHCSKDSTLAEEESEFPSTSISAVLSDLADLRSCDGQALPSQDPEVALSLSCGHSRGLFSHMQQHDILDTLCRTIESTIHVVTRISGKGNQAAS

[3] = biological target: PES1 C361 (O00541) (Homo sapiens, UniProt O00541)
PES1 C361 (O00541), sequence (O00541 whole entry, looked up): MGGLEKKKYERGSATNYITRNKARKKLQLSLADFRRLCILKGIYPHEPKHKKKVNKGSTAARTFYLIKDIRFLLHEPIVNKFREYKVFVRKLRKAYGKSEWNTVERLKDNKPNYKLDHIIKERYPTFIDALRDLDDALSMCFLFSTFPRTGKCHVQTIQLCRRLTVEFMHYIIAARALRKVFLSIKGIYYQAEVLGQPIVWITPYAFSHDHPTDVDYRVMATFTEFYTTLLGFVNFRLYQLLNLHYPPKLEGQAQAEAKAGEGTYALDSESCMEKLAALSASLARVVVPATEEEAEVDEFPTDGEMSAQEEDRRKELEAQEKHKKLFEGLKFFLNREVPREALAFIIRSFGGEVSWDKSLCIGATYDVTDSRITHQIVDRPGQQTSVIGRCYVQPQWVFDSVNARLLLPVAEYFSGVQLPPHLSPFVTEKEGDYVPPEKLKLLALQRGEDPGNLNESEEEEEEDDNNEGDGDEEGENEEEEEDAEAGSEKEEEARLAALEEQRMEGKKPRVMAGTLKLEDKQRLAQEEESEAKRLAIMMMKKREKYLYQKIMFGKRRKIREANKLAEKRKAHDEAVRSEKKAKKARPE

[4] = biological target: T2, USP22 C44 (Q9UPT9) (Homo sapiens, UniProt Q9UPT9)
T2 sequence (Q9UPT9 1-525): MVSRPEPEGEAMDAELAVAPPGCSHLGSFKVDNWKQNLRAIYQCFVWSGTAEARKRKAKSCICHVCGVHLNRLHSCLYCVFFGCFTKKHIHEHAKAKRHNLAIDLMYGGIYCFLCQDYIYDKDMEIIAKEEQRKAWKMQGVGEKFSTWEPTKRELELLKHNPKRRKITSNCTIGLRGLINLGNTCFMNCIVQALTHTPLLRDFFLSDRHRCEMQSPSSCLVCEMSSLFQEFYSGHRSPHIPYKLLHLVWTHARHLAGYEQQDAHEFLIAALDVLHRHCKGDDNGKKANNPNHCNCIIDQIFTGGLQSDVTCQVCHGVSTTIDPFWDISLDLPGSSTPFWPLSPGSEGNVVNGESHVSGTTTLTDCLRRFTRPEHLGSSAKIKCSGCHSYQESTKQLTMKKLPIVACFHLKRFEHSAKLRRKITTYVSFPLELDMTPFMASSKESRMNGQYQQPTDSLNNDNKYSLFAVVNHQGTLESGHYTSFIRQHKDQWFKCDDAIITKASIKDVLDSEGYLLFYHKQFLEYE

SMILES: O=C(CCl)Nc1cc(C(F)(F)F)cc(C(F)(F)F)c1 [compound 3]
- R value (DMSO/fragment) ([1]; 500 μM, in vitro, MDA-MB-231): 20.0
- R value (DMSO/fragment) ([2]; 500 μM, invitro, ramos): 19.7
- R value (DMSO/fragment) ([3]; 500 μM, in vitro, MDA-MB-231): 1.5

SMILES: C=CC(=O)N(c1ccccc1)c1ccc(Br)cc1 [compound 5]
- isoTOP-ABPP ratio, Q9UPT9_C44 ([4]; 500 μM, invitro, ramos): 20.0
- isoTOP-ABPP ratio, Q70CQ2_C1090 ([2]; 500 μM, invitro, ramos): 20.0

SMILES: O=C(CCl)N1CCN(S(=O)(=O)c2ccccc2F)CC1 [compound 10]
- isoTOP-ABPP ratio, O00622_C134 ([1]; 500 μM, invitro, 231): 20.0

SMILES: O=C(CCl)N1CCC(C(O)(c2ccccc2)c2ccccc2)CC1 [compound 20]
- isoTOP-ABPP ratio (reactivity profile), O00622_C134 [1]: 20.0
- isoTOP-ABPP ratio (reactivity profile), Q70CQ2_C1090 [2]: 2.7
- isoTOP-ABPP ratio (reactivity profile), O00541_C361 ([3]; 500 μm in-vitro ramos): 20.0
- isoTOP-ABPP ratio (reactivity profile), O00541_C361 ([3]; 500 μm in-vitro ramos_231): 20.0

SMILES: O=C(CCl)NC12CC3CC(CC(C3)C1)C2 [compound 21]
- isoTOP-ABPP ratio (reactivity profile), Q70CQ2_C1090 [2]: 0.9

SMILES: N#C/C(=C\c1cc(C(F)(F)F)cc(C(F)(F)F)c1)C(N)=O [compound 23]
- isoTOP-ABPP ratio (reactivity profile), O00541_C361 ([3]; 500 μm in-vitro ramos): 1.1

SMILES: CC(Cl)C(=O)Nc1cc(C(F)(F)F)cc(C(F)(F)F)c1 (stereo not drawn) [compound 25]
- isoTOP-ABPP ratio (reactivity profile), O00622_C134 [1]: 1.0

SMILES: CC(C)CCOCCNC(=O)CCl [compound 27]
- isoTOP-ABPP ratio (reactivity profile), O00622_C134 [1]: 1.5
- isoTOP-ABPP ratio (reactivity profile), Q9UPT9_C44 ([4]; 500 μm in-vitro ramos): 1.2
- isoTOP-ABPP ratio (reactivity profile), Q9UPT9_C44 ([4]; 500 μm in-vitro ramos_231): 20.0

SMILES: CCN(CC)c1ccc(S(N)(=O)=O)cc1NC(=O)CCl [compound 30]
- isoTOP-ABPP reactivity ratio, Q9UPT9_C44 ([4]; 500 μm, in-vitro_ramos): 1.7

SMILES: COc1cc(NC(=O)CCl)cc(OC)c1 [compound 43]
- isoTOP-ABPP reactivity profile ratio, Q9UPT9_C44 ([4]; 500 μm, in-vitro_ramos): 2.1
